In patent US20210236438A1, “COMPOUNDS AND METHODS FOR THE TREATMENT OF AUTISM SPECTRUM DISORDER AND OTHER NEUROLOGICAL OR PSYCHIATRIC DISORDERS” (Tufts Medical Center, Inc., priority 2018, published 2021):
“Also recorded” adds a separate entry of the source.

Key:
[1] = ip or oral administration; U.S. Pat. No. 3,995,061; cited from earlier work
[2] = tested on: GADPH; test: Western blot of control protein level in ascochlorin-treated rat embryonic cortical neurons; format: cell-based
Description: (§1) Compounds that modify hnRNP L levels therefore hold promise as lead structures for the development of ASD/mental retardation/neurological disorders.

[3] = tested on: hnRNP L; test: Western blot of hnRNP L level in ascochlorin-treated cultured rat primary cortical neurons; format: cell-based; settings: rat embryonic/primary cortical neurons, hnRNP L 60 KDa
Description: as §1

[4] = tested on: BIN1; settings: human osteosarcoma cells (U2OS), proteome analysis, Kang et al. 2006; cited from earlier work
[5] = tested on: hnRNP L; settings: Kang et al. 2006, cited from earlier work
[6] = tested on: glucose transporter 1 (GLUT-1); settings: Jeong et al. 2011; cited from earlier work
[7] = U.S. Pat. No. 3,995,061; cited from earlier work
[8] = tested on: vascular endothelial growth factor (VEGF); settings: Jeong et al. 2011; cited from earlier work

SMILES | toxicity as assessed by LD50 [1] | level of the control protein (GADPH 40 KDa) [2] | level of hnRNP L [3] | increase in BIN1 protein level [4] [×] | hnRNP L protein levels in vitro (in words) ([5]; U2OS osteosarcoma cells) | increase in hnRNP L protein level ([5]; human osteosarcoma cells (U2OS), proteome analysis) [×] | expression of GLUT-1 [6] | tolerability in clinical trials [7] | expression of VEGF [8]
CCOc1c(Cl)c(C)c(C=O)c(O)c1C/C=C(C)/C=C/C1(C)C(C)CCC(=O)C1C (stereo not shown) [4-O-ethyl-ascochlorin] | low toxicity |  |  |  |  |  |  |  | 
CC(/C=C/[C@@]1(C)[C@H](C)CCC(=O)[C@@H]1C)=C\Cc1c(O)c(Cl)c(C)c(C=O)c1O [ascochlorin] |  | does not affect the level of the control protein | increases the level of hnRNP L; also recorded: increase hnRNP L levels in neurons; also recorded: increased levels of hnRNP L | 10 | increase hnRNP L protein levels in vitro | 12 |  |  | 
COc1c(Cl)c(C)c(C=O)c(O)c1C/C=C(C)/C=C/[C@@]1(C)[C@H](C)CCC(=O)[C@@H]1C [MAC, 4-O-methylascochlorin] | low toxicity |  |  |  |  |  | increases the expression | well tolerated | increases the expression
